Experimental data published in paper PMC8509676, “Residual Helicity at the Active Site of the Histidine Phosphocarrier, HPr, Modulates Binding Affinity to Its Natural Partners” (International Journal of Molecular Sciences, 2021).
Where two headings read alike, the source gives them in different places.

T1: Regulator of sigma D from Escherichia coli (Rsd^ec) (E. coli, UniProt P0AFX4 1-158)
T1 construct: Rsd (regulator of sigma D), anti-sigma factor of sigma 70, E. coli; 158-residue-long protein; called 'intact Rsd' in the abstract and 'wild-type Rsd vector' in the methods; Vector was a gift from Ann Hochschild; source: E. coli C41, purified as described [24,50]
T1 sequence (looked up): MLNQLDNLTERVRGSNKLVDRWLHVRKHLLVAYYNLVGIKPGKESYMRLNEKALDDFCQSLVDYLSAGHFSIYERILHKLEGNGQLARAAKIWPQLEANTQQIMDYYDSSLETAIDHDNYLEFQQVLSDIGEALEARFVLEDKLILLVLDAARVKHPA

B1: HPr^9–30 F22A peptide (peptide)
peptide: Ac-GWAEGLHARPASIAVRAATATG-NH2
notes: HPr of Streptomyces coelicolor, residues 9-30, with F22A; source: synthetic peptide, bought: NZYTech (purity >95%)

Experiments:
[1] = molecular target: EI (Streptomyces coelicolor) (UniProt Q9KZP1); experiment: ITC; details: cited from earlier work
Rsd (Escherichia coli) = Rsd (Escherichia coli) (UniProt C5A0T6); experiment: ITC; details: cited from earlier work
[2] = molecular target: EIN^sc (N-terminal domain of EI^sc) (Streptomyces coelicolor, UniProt Q9KZP1); experiment: biochemical; assay type: binding
Protocol: (§1) The experimental set-up and data processing of ITC experiments has been described previously. Rsd^ec or EIN^sc (at 10–20 µM) were injected into the cell, and the peptides in the syringe (100–200 µM) in 50 mM of Tris buffer, pH 7.0. The temperature for all the experiments was 25 °C. Typically, each calorimetric titration consisted of performing 19 injections with 2 μL volume, with a time spacing of 150 s, while stirring at 750 rpm in an Auto-iTC200 high-sensitivity microcalorimeter (MicroCal, Malvern-Panalytical, Malvern, UK). The results were analysed by applying a model that considered a single binding site (assuming a 1:1 stoichiometry) for the peptide/EIN^sc or peptide/Rsd^ec interaction using a nonlinear least-squares regression analysis in Origin 7.0 (OriginLab, Northampton, MA, USA) with user-defined fitting routines.

Rsd^ec [3] = molecular target: T2, Rsd^ec (Escherichia coli, UniProt P0AFX4); experiment: Isothermal titration calorimetry (ITC), peptide/Rsd^ec binding; details: for ΔH, Rsd^ec: 50 mM Tris pH 7.0
T2 construct: His-tag; made in house; host or cells: E. coli C41
Protocol: as §1

EIN^sc = EIN^sc (Streptomyces coelicolor, UniProt Q9KZP1); experiment: biochemical; assay type: binding
Protocol: (§2) Spectra were collected at 25 °C on a Cary spectrofluorometer (Agilent, Madrid, Spain), with a Peltier temperature controller. The samples were prepared the day before and left overnight at 5 °C. Before measurements, the samples were incubated for 1 h at 25 °C. A quartz cell with a 1 cm path length (Hellma, Kruibeke, Belgium) was used. In all the experiments, the slit widths were equal to 5 nm for both the excitation and emission lights. Protein samples were excited at either 280 or 295 nm. The experiments were performed between 300 and 400 nm. The signal was acquired for 1 s, and the increment of wavelength was set to 1 nm. Appropriate blank corrections were made in all spectra. For the binding experiments, 3 µM of either protein (Rsd^ec or EIN^sc) and 15 µM of the corresponding peptide were mixed. The experiments in aqueous solution were acquired in Tris buffer (50 mM, pH 7.0).
(§3) For the titration between either of the two proteins (Rsd^ec or EIN^sc) and the corresponding peptide, increasing amounts of the latter, in a concentration range of 0 to 30 µM, were added to a solution with a fixed concentration of each protein (3 µM). The experimental set-up was identical to that described above, including preparation of the samples the day before and their storage overnight at 5 °C. Before measurements, the samples were incubated for 1 h at 25 °C. The fluorescence of a blank solution containing only the corresponding peptide was subtracted for each data point. […] The Kd was determined by following the fluorescence at selected wavelengths and fitting experimental data to Equation (1). […] At all used concentrations, the fluorescence was corrected by the inner-filter effects.

[4] = test system: Staphylococcus aureus CECT59; assay type: cell-based; details: S. aureus CECT59, two-fold broth microdilution (CLSI), MH broth, 24 h, 37 °C; triplicate (sd = 0); highest concentration tested 400 µM
Protocol: The CECT59 strain of the Gram-positive bacteria Staphylococcus aureus from the Spanish Type Culture Collection (Colección Española de Cultivos Tipo, CECT, Universitat de Valencia, Spain) was used for determining its sensitivity to the HPr peptides studied in this work. The MIC for each peptide was determined by the two-fold broth microdilution method according to the Clinical and Laboratory Standards Institute (CLSI) guidelines, with some modifications as previously described. For this testing procedure, a bacteria colony previously grown in MH agar plates was isolated and incubated in MH broth at 37 °C overnight to prepare the bacteria inoculum to be used in each assay. Then, the bacteria suspensions were adjusted to a 100× dilution of an 0.5 McFarland turbidity standard in MH broth and incubated with different concentrations of each peptide in round-bottom 96-well polystyrene plates (Deltalab S.L., Rubí, Spain) (50 μL/well) for 24 h at 37 °C. The peptide concentrations employed comprised two-fold dilutions starting at either 120, 160, or 400 µM, depending on the experiment. […] All assays were performed in triplicate.

[5] = Far-UV CD, helicity from molar ellipticity at 222 nm; assay type: physicochemical; details: 5 °C; for [Θ]^222 (value in parentheses): 50 mM Tris pH 7.0; for Helicity (%): 50 mM Tris pH 7.0, from [Θ]^222 assuming −39,500 deg cm^2 dmol^−1 for a fully formed α-helix
Protocol: Spectra were collected on a Jasco J810 spectropolarimeter (Jasco, Tokyo, Japan) interfaced with a Peltier unit. Far-UV measurements were performed with samples placed in quartz cells with a 0.1 cm path length (Hellma, Kruibeke, Belgium), with a response time of 2 s, a band width of 1 nm, and a scan velocity of 50 nm/min. For all peptides, a wide range of concentrations (10–50 µM) was used to determine whether either the shape or the intensity of the spectra was concentration-dependent. None of those features changed in the concentration range explored. The experiments in aqueous solution were acquired at 5 °C in Tris buffer (50 mM, pH 7.0). Raw ellipticity was converted to molar ellipticity, [Θ], from which the fraction of helical populations was determined as previously described. For the experiments in the presence of each protein (repeated three times), the same concentration used in the fluorescence experiments was used, and the experimental set-up was the same as described above for the isolated peptides.

[6] = TFE titration followed by far-UV CD (disordered-helical two-state equilibrium); assay type: physicochemical; details: for [TFE]1/2 / m: TFE titration by far-UV CD, 20 µM peptide, two-state fit, fitting errors; for percentage of helical population (in parentheses): from ∆G^water assuming a two-state conformational equilibrium; for ∆G^water: product of m- and [TFE]1/2 values, error propagation
Protocol: For experiments in the presence of TFE, the same set of experimental parameters was used. Cosolvent concentrations were indicated in percentage of volume (%). […] The peptide concentration for these experiments was 20 µM.

[7] = Translational diffusion NMR (DOSY); assay type: physicochemical; details: for D (translational diffusion coefficient): DOSY, 10 °C, 100% D2O, 70-120 µM peptide, fitting errors, repeated twice; for Rh (in parentheses, from DOSY): from comparison with the Rh of dioxane (2.12 Å)
Protocol: (b) Translational diffusion NMR (DOSY): Peptide concentrations were the same as those used in the 1D-^1H-NMR spectra. Translational self-diffusion measurements were performed with the pulsed-gradient spin-echo sequence in the presence of 100% D2O. The following relationship existed between the translational self-diffusion coefficient, D, and the delays used during experiment acquisition:(2) I/I0=−exp(DγH2δ^2G^2(Δ−δ/3−τ/2)) where I is the peak intensity of a particular resonance (or a group of them) at any gradient strength; I0 is the maximum peak intensity of the same resonance(s) at the smallest gradient strength (that is, at 2% of the total power of the gradient coil); D is the translational self-diffusion constant (in cm^2 s^−1); δ is the duration (in s) of the gradient; G is the gradient strength (in T cm^−1); ∆ is the time (in s) between the gradients; γH is the gyromagnetic constant of the proton (in rad s^−1 T^−1); and τ is the recovery delay between the bipolar gradients (100 µs in our experiments). The gradient strength (G) was varied in 16 lineal steps, between 2 and 95% of the total power of the gradient coil of the probe. The gradient strength was calibrated by using the value of D for the residual proton water line in a sample containing 100% D2O placed in a 5 mm tube [42]. Data were plotted as I/I0 versus G^2, and the exponential factor of the curve was:(3) DγH2δ^2(Δ−δ/3−τ/2) from which D can be obtained. The duration of the gradient (δ) was 2.25 ms, and the time between the two gradients (∆) was set to 200 ms. The signal from the methyl groups between 1.1 and 0.70 ppm were used for integration of the intensity. A final concentration of 1% of dioxane was added to each peptide; the hydrodynamic radius, Rh, of each peptide was obtained for comparison by assuming that the Rh of dioxane was 2.12 Å [42]. The DOSY experiment was repeated twice with fresh samples for each peptide.

[8] = molecular target: EI EIN (Streptomyces coelicolor) (UniProt Q9KZP1); experiment: ITC; details: cited from earlier work
Rsd^ec [9] = molecular target: T2, Rsd^ec; experiment: Fluorescence titration, peptide/Rsd^ec binding
Protocol: as §2, §3

[10] = molecular target: T1, Regulator of sigma D from Escherichia …; experiment: ITC; Rsd^ec or EIN^sc (10–20 µM) in the cell, peptide (100–200 µM) in the syringe; 50 mM Tris, pH 7.0, 25 °C; single binding-site model, 1:1 stoichiometry assumed; details: both partners purified
[11] = molecular target: T1, Regulator of sigma D from Escherichia …; experiment: other fluorescence titration; peptide 0–30 µM added to 3 µM Rsd^ec or EIN^sc; 50 mM Tris, pH 7.0, 25 °C; samples left overnight at 5 °C; blank of peptide subtracted; details: both partners purified

Sequence of EIN^sc (N-terminal domain of EI^sc) (Q9KZP1 1-230): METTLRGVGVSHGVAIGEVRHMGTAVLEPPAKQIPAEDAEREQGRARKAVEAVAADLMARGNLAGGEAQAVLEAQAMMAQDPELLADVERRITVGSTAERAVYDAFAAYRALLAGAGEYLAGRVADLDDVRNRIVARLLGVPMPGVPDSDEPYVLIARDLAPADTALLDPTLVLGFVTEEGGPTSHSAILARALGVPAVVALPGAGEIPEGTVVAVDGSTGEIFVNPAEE
Sequence of EIN^sc (Q9KZP1 1-230): as above
Sequence of EI EIN (Streptomyces coelicolor) (Q9KZP1 1-250): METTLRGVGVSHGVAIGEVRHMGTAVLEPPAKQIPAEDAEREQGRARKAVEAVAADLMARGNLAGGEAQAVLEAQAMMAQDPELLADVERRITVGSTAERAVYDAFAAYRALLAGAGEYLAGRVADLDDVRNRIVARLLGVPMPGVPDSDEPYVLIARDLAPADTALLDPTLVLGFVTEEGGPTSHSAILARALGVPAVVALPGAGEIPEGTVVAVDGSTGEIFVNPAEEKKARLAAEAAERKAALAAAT
Sequence of EI (Streptomyces coelicolor) (Q9KZP1 whole entry): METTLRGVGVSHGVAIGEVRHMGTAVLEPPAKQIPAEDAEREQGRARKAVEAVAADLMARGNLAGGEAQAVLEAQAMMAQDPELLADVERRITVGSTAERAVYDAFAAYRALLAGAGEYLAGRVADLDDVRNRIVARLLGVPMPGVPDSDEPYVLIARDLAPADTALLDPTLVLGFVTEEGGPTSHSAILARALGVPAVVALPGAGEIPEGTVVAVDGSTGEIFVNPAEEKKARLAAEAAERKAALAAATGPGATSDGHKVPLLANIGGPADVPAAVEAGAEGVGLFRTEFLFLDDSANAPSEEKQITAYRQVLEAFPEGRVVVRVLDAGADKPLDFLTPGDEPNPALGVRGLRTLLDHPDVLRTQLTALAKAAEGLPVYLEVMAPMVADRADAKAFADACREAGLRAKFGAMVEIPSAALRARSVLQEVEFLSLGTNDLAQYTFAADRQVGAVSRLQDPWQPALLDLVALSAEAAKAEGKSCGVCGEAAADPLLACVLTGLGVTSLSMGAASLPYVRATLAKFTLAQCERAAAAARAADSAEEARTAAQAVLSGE

Row | Molecule | Kd (Rsd (Escherichia coli)) | ΔH, Rsd^ec (Rsd^ec [3]; ITC, 25 °C) | MIC [4] | [Θ]^222 (value in parentheses) [5] | Helicity (%) [5] | [TFE]1/2 [6] | m [6] | percentage of helical population (in parentheses) [6] | ∆G^water [6] | D (translational diffusion coefficient) [7] | Rh (in parentheses, from DOSY) [7] | other results
1 | HPr 9-30 (from UniProt O50515) | 2.5 µM |  |  |  |  |  |  |  |  |  |  | Kd [1]: 230 µM
2 | Ac-GWAEGLHARPASIFARAATATG-NH2 [Peptide V23A] |  | -0.8 ± 0.5 kcal/mol | > 400 µM | −988.51 deg cm^2 dmol^−1 | 2.5% | 22.7 ± 0.3 % (v/v) | 217 ± 23 cal/mol (% (v/v)) | 0.01% | 4.9 ± 0.5 kcal/mol | 2.0 ± 0.1 cm^2 s^−1 × 10^6 | 11 ± 1 Å | Kd [2]: 9.1 ± 0.9 µM; ΔH, EIN^sc ([2]; ITC, 25 °C, 50 mM Tris pH 7.0): -6.6 ± 0.5 kcal/mol; Kd (EIN^sc): 9 µM
3 | HPr (from UniProt O50515) | 2 µM |  |  |  |  |  |  |  |  |  |  | Kd [8]: 12 µM
4 | Ac-GWAEGLHARPASAFVRAATATG-NH2 [Peptide I21A] |  | 1.0 ± 0.4 kcal/mol | > 400 µM | −681.95 deg cm^2 dmol^−1 | 1.7% | 23.8 ± 0.4 % (v/v) | 197 ± 20 cal/mol (% (v/v)) | 0.02% | 4.7 ± 0.5 kcal/mol | 1.9 ± 0.1 cm^2 s^−1 × 10^6 | 11 ± 1 Å | Kd (Rsd^ec [3]): 2.6 ± 0.4 µM; Kd (Rsd^ec [9]): 8 µM
5 | Ac-GWAEGLHARAASAAARAATATG-NH2 [P18A/I21A/F22A/V23A] |  | 4.3 ± 0.5 kcal/mol | > 400 µM | −7305.73 deg cm^2 dmol^−1 | 18.4% | 21 ± 1 % (v/v) | 157 ± 26 cal/mol (% (v/v)) | 0.24% | 3.3 ± 0.6 kcal/mol | 1.7 ± 0.1 cm^2 s^−1 × 10^6 | 12 ± 2 Å | Kd (Rsd^ec [3]; ITC, 25 °C, 50 mM Tris pH 7.0, single binding-site model, read-out: Kd, Rsd^ec (ITC)): 5 ± 0.7 µM; Kd (EIN^sc; fluorescence titration, 3 µM protein, 0-30 µM peptide, 25 °C, 50 mM Tris pH 7.0, uncertainties are fitting errors, repeated three times, read-out: Kd, EIN^sc (fluorescence titration, value in parentheses)): 11 µM; Kd (Rsd^ec [9]; fluorescence titration, 3 µM protein, 0-30 µM peptide, 25 °C, 50 mM Tris pH 7.0, uncertainties are fitting errors, repeated three times, read-out: Kd, Rsd^ec (fluorescence titration, value in parentheses) (converted)): 10 µM
6 | B1 |  |  |  |  |  |  |  |  |  |  |  | Kd [10]: 5.9 ± 0.7 µM; dH [10]: 1.1 ± 0.5 kcal/mol; Kd [11]: 11 µM
